Test results taken from US20230270881A1, “ONCOGENIC TRIM37 IS A TARGETABLE EPIGENETIC DRIVER OF METASTASIS AND LINKS CHEMORESISTANCE AND METASTATIC FATE IN TRIPLE-NEGATIVE BREAST CANCER” (University of Virginia Patent Foundation, priority 2020, published 2023).
Values belong to the molecule of their own block, whether it stands above or below them.

B2: tripartite motif-containing protein 37 (TRIM37) (enzyme)
chain: MDEQSVESIAEVFRCFICMEKLRDARLCPHCSKLCCFSCIRRWLTEQRAQCPHCRAPLQLRELVNCRWAEEVTQQLDTLQLCSLTKHEENEKDKCENHHEKLSVFCWTCKKCICHQCALWGGMHGGHTFKPLAEIYEQHVTKVNEEVAKLRRRLMELISLVQEVERNVEAVRNAKDERVREIRNAVEMMIARLDTQLKNKLITLMGQKTSLTQETELLESLLQEVEHQLRSCSKSELISKSSEILMMFQQVHRKPMASFVTTPVPPDFTSELVPSYDSATFVLENFSTLRQRADPVYSPPLQVSGLCWRLKVYPDGNGVVRGYYLSVFLELSAGLPETSKYEYRVEMVHQSCNDPTKNIIREFASDFEVGECWGYNRFFRLDLLANEGYLNPQNDTVILRFQVRSPTFFQKSRDQHWYITQLEAAQTSYIQQINNLKERLTIELSRTQKSRDLSPPDNHLSPQNDDALETRAKKSACSDMLLEGGPTTASVREAKEDEEDEEKIQNEDYHHELSDGDLDLDLVYEDEVNQLDGSSSSASSTATSNTEENDIDEETMSGENDVEYNNMELEEGELMEDAAAAGPAGSSHGYVGSSSRISRRTHLCSAATSSLLDIDPLILIHLLDLKDRSSIENLWGLQPRPPASLLQPTASYSRKDKDQRKQQAMWRVPSDLKMLKRLKTQMAEVRCMKTDVKNTLSEIKSSSAASGDMQTSLFSADQAALAACGTENSGRLQDLGMELLAKSSVANCYIRNSTNKKSNSPKPARSSVAGSLSLRRAVDPGENSRSKGDCQTLSEGSPGSSQSGSRHSSPRALIHGSIGDILPKTEDRQCKALDSDAVVVAVFSGLPAVEKRRKMVTLGANAKGGHLEGLQMTDLENNSETGELQPVLPEGASAAPEEGMSSDSDIECDTENEEQEEHTSVGGFHDSFMVMTQPPDEDTHSSFPDGEQIGPEDLSFNTDENSGR
notes: Endogenous TRIM37 in extracts of human TNBC cell lines (MDA MB 468 nuclear extract for co-immunoprecipitation, HCC1806 whole cell extract for sucrose gradient)

Assays:
TRIM37 [1] = experiment: Immunoblotting of TRIM37 in treated cells; format: cell-based, human; conditions: TNBC cells
Protocol: Immunoblotting. Cell extracts were prepared by lysing cell pellet in RIPA buffer supplemented with 1 mM sodium ortho-vanadate and 10 mM PMSF. To prepare protein extract from mouse tissue, it was homogenized in lysis buffer (1% SDS, 1 mM sodium ortho-vanadate, 10 mM Tris pH 7.4 and protease inhibitor). Immunoblots were probed using antibodies against TRIM37 (Abcam), PARP (Cell Signaling Technology), p21 (Cell Signaling Technology), γ-ph-H2AX (Cell Signaling Technology), RAD51C (Invitrogen), ph-ATM (Cell Signaling Technology), ph-STAT1 (Cell Signaling Technology), ph-STAT3 (Cell Signaling Technology), ph-STAT5 (Cell Signaling Technology), BIM (Abcam), FOLR1 (R&D) and α-tubulin (Invitrogen).

TRIM37 [2] = experiment: Directed-ChIP assays; format: cell-based, human; conditions: MDA MB 468 cells, in combination with Dox
Protocol: Directed-ChIP assays. ChIP assays were performed as described previously (Bhatnagar et al., 2014) using cell extracts prepared 1 day after Cas9 transduction or inhibitor treatment, and antibodies against BMI1 (Abcam), H2Aub (Cell Signaling Technology), TRIM37 (Abcam), STAT1 (Cell Signaling Technology), STAT3 (Cell Signaling Technology), E2F1 (Cell Signaling Technology), and as a negative control, IgG. Each ChIP experiment was carried out at least three independent times and the results from at least three biological experiments, with technical duplicates, are shown.
(§1) Chemical inhibitor treatment. MDA-MB-468 cells were treated for 24 hrs with 10 µM Dox and small molecule inhibitors at the following concentrations: 10 µM KU000553 (Cayman Chemical), 50 µM AG490 (Cayman Chemical), and 40 µM HLM006474 (Sigma-Aldrich) for 24 hrs.

MDA-MB-468 cells = experiment: Chemical inhibitor treatment with Dox, qRT-PCR of TRIM37; format: cell-based, human; conditions: in combination with Dox
Protocol: Quantitative RT-PCR (qRT-PCR). Total RNA was isolated and reverse transcribed using Superscript II Reverse Transcriptase (Invitrogen). Gene expression was normalized to Gapdh. Controls lacking reverse transcriptase were carried out in parallel to rule out the possibility of DNA contamination. Each sample was analyzed at least two independent times and the results from at least three different biological triplicates are presented.
as §1

[3] = target: B2; experiment: sucrose gradient sedimentation of HCC1806 whole cell extract, immunoblot of fractions
Protocol: (§2) Sucrose gradient fractionation. Sucrose gradient sedimentation analysis was performed as described previously (Bhatnagar et al., 2014). Briefly, 10-40% gradients were formed by layering 200 µl NEB1 buffer containing 10%, 20%, 30% or 40% sucrose in a 13 x 51 mm centrifuge tube (Beckman) and allowed to equilibrate at room temperature for 2 hrs. Gradients were chilled, loaded with […] HCC1806 extract (adjusted to a volume of 200 µl) or 200 µl molecular weight markers (Sigma MW-GF-1000), and centrifuged in a Beckman SW 55 Ti rotor at 214,000 g for 14 hrs. Twenty-five fractions of 200 µl were collected. For the markers, 20 µl of each fraction was electrophoresed and Coomassie stained.

RAD50 = target: T1, RAD50 (human, UniProt Q92878 1-1312); experiment: as above
T1 construct: Only co-sedimentation with TRIM37 is reported
T1 sequence (looked up): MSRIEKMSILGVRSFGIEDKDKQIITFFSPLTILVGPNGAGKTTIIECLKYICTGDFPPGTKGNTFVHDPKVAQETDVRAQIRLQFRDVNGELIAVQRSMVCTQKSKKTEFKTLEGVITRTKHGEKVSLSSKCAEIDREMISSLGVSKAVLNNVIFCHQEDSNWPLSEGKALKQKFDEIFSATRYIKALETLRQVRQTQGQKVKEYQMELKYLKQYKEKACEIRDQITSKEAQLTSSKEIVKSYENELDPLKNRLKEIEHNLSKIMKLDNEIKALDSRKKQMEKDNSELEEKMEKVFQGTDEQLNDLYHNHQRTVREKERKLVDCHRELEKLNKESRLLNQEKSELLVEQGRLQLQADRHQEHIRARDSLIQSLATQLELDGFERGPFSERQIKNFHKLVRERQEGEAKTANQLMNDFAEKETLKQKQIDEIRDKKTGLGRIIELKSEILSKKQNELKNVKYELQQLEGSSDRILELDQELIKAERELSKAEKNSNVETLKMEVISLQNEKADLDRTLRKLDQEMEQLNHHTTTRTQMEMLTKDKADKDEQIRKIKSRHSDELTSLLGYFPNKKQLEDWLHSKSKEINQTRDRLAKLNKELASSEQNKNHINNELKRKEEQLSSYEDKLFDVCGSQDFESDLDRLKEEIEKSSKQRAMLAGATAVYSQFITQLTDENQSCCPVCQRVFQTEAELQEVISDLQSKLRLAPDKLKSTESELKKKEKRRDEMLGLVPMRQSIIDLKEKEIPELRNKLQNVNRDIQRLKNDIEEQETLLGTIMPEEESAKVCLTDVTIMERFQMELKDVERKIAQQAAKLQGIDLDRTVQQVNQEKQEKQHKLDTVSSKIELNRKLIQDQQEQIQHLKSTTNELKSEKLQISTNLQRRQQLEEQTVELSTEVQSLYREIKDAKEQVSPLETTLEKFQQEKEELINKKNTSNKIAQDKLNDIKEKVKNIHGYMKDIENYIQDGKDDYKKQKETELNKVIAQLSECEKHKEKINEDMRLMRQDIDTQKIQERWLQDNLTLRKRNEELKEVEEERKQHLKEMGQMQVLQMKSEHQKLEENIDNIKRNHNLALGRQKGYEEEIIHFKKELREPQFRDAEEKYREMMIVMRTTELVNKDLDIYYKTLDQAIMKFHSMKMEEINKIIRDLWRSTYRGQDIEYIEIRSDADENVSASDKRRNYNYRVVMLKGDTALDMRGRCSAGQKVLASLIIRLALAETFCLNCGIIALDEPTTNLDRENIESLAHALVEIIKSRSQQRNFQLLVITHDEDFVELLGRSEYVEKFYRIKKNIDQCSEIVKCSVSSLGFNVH
Protocol: as §2

Molecule: COc1cccc2c1C(=O)c1c(O)c3c(c(O)c1C2=O)C[C@@](O)(C(C)=O)C[C@@H]3O[C@H]1C[C@H](N)[C@H](O)[C@H](C)O1 [daunorubicin]
TRIM37 expression post-treatment relative to DMSO (TRIM37 [1]): increased TRIM37 expression

Molecule: CCOc1ccc(C(Nc2ccccn2)c2ccc3ccc(C)nc3c2O)cc1C (stereo not drawn) [HLM006474]
Dox-induced STAT1, STAT3, and E2F1 recruitment to TRIM37 (ChIP) (TRIM37 [2]): substantially decreased | TRIM37 upregulation following Dox-treatment (qRT-PCR) (MDA-MB-468 cells): blocks TRIM37 upregulation

Molecule: N.N.[Cl][Pt][Cl] [cisplatin]
TRIM37 expression post-treatment relative to DMSO (TRIM37 [1]): increased TRIM37 expression

Molecule: N#C/C(=C/c1ccc(O)c(O)c1)C(=O)NCc1ccccc1 [AG490]
Dox-induced STAT1, STAT3, and E2F1 recruitment to TRIM37 (ChIP) (TRIM37 [2]): substantially decreased | TRIM37 upregulation following Dox-treatment (qRT-PCR) (MDA-MB-468 cells): blocks TRIM37 upregulation

Molecule: O=c1cc(-c2cccc3c2Sc2ccccc2S3)oc(N2CCOCC2)c1 [KU000553]
TRIM37 upregulation following Dox-treatment (qRT-PCR) (MDA-MB-468 cells): blocks TRIM37 upregulation

binding result [3]: binds
B1: MRE11 (other, human, UniProt P49959 2-708, looked up)
chain: STADALDDENTFKILVATDIHLGFMEKDAVRGNDTFVTLDEILRLAQENEVDFILLGGDLFHENKPSRKTLHTCLELLRKYCMGDRPVQFEILSDQSVNFGFSKFPWVNYQDGNLNISIPVFSIHGNHDDPTGADALCALDILSCAGFVNHFGRSMSVEKIDISPVLLQKGSTKIALYGLGSIPDERLYRMFVNKKVTMLRPKEDENSWFNLFVIHQNRSKHGSTNFIPEQFLDDFIDLVIWGHEHECKIAPTKNEQQLFYISQPGSSVVTSLSPGEAVKKHVGLLRIKGRKMNMHKIPLHTVRQFFMEDIVLANHPDIFNPDNPKVTQAIQSFCLEKIEEMLENAERERLGNSHQPEKPLVRLRVDYSGGFEPFSVLRFSQKFVDRVANPKDIIHFFRHREQKEKTGEEINFGKLITKPSEGTTLRVEDLVKQYFQTAEKNVQLSLLTERGMGEAVQEFVDKEEKDAIEELVKYQLEKTQRFLKERHIDALEDKIDEEVRRFRETRQKNTNEEDDEVREAMTRARALRSQSEESASAFSADDLMSIDLAEQMANDSDDSISAATNKGRGRGRGRRGGRGQNSASRGGSQRGRADTGLETSTRSRNSKTAVSASRNMSIIDAFKSTRQQPSRNVTTKNYSEVIEVDESDVEEDIFPTTSKTDQRWSSTSSSKIMSQSQVSKGVDFESSEDDDDDPFMNTSSLRRNRR
notes: Only co-sedimentation with TRIM37 is reported

Molecule: B2
binding result (RAD50): binds
